≈ marks a conversion by molar mass, not a printed value. Where two headings read alike, the source gives them in different places.
What was measured:
Assay type in all cases: cell-based
E. cloacae 13047 = assay: Minimal inhibitory concentration, E. cloacae 13047; conditions: read-out: MIC (μM) E. cloacae 13047
Procedure: (§1) General Procedure for Determination of Minimal Inhibitory Concentrations
(§2) Overnight cultures (5 mL) of bacterial strains were grown in LB media or TSA media (for S. aureus) at 37° C. and with shaking at 220 rpm until saturation. The overnight culture was diluted serially 1:100 (50 μL in 5 mL sterile media) and then 1:100 (250 μL in 25 mL sterile media). The 25 mL of diluted culture was then dispensed to a sterile 96 well plate (Corning #3370). 198 μL of culture were dispensed into row A and 100 μL of this culture were dispensed into rows B-H. Aminocoumarin compound (DMSO stock) were added to the first row and then the row was mixed by pipetting. 100 μL of culture from row A were transferred to row B and the serial dilution continued until the final 100 μL from row H were discarded. The plate was incubated without shaking in a 37° C. for 16 hours and then read by visible light spectrophotometer (Molecular Devices) at 600 nm. The minimal inhibitory concentration (MIC) was determined as the lowest concentration of compound concentration that inhibited the growth of bacteria.
(§3) The compounds of the invention were assessed for activities against the pathogens S. aureus RN4220 and MW2, E. cloacae 13047, A. baumannii 19606, K. pneumoniae 700721, E. coli MC4100, 25922. All activities are reported in micromolar (uM) and are 16 hour minimal inhibitory concentrations at 37° C. The assay is detailed in Example 11 and is titled “General Procedure for Determination of Minimal Inhibitory Concentrations.”

S. aureus MW2 = assay: Minimal inhibitory concentration, S. aureus MW2; conditions: read-out: MIC (μM) S. aureus MW2 (MRSA)
Procedure: as §1, §2, §3

E. coli 25922 = assay: Minimal inhibitory concentration, E. coli 25922; conditions: read-out: MIC (μM) E. coli 25922
Procedure: as §1, §2, §3

S. aureus RN4220 = assay: Minimal inhibitory concentration, S. aureus RN4220; conditions: read-out: MIC (μM) S. aureus RN4220
Procedure: as §1, §2, §3

K. pneumoniae 700721 = assay: Minimal inhibitory concentration, K. pneumoniae 700721; conditions: read-out: MIC (μM) K. pneumoniae 700721
Procedure: as §1, §2, §3

A. baumannii 19606 = assay: Minimal inhibitory concentration, A. baumannii 19606; conditions: read-out: MIC (μM) A. baumannii 19606
Procedure: as §1, §2, §3

E. coli MC4100 = assay: Minimal inhibitory concentration, E. coli MC4100; conditions: read-out: MIC (μM) E. coli MC4100 ara+
Procedure: as §1, §2, §3

[1] = 16 hour minimal inhibitory concentration at 37° C.
[2] = Enterobacter cloacae, 13047, 16 hour minimal inhibitory concentration at 37° C.
[3] = Staphylococcus aureus, MRSA, 16 h
[4] = Staphylococcus aureus, RN4220, 16 h, 16 hour minimal inhibitory concentration at 37° C.
[5] = Klebsiella pneumoniae, 700721, 16 hour minimal inhibitory concentration at 37° C.
[6] = Staphylococcus aureus, MRSA, 16 h, 16 hour minimal inhibitory concentration at 37° C.
[7] = Escherichia coli, 25922, 16 h, 16 hour minimal inhibitory concentration at 37° C.
[8] = Acinetobacter baumannii, 19606, 16 h, 16 hour minimal inhibitory concentration at 37° C.

SMILES	MIC (E. cloacae 13047; [1]) [µM]	MIC (S. aureus MW2; [1]) [µM]	MIC (E. coli 25922; [1]) [µM]	MIC (S. aureus RN4220; [1]) [µM]	MIC (K. pneumoniae 700721; [1]) [µM]	MIC (A. baumannii 19606; [1]) [µM]	MIC (E. coli MC4100; [1]) [µM]	further results
CO[C@@H]1[C@@H](OC(N)=O)[C@@H](O)[C@H](Oc2ccc3c(O)c(NC(=O)C45CC6CC(CC(F)(C6)C4)C5)c(=O)oc3c2C)OC1(C)C [Compound 100]	>100	41 (≈ 24.8 µg/mL)	>200	83 (≈ 50.2 µg/mL)	>100	>50	>200	–
CO[C@@H]1[C@@H](OC(N)=O)[C@@H](O)[C@H](Oc2ccc3c(O)c(NC(=O)c4ccc(F)c(CC=C(C)C)c4)c(=O)oc3c2C)OC1(C)C [Compound 101]	–	–	–	–	–	–	–	MIC (E. cloacae 13047; [2]): > 100 µM; MIC (S. aureus MW2; [3]): 1 µM (≈ 0.615 µg/mL); MIC (E. coli 25922; Escherichia coli, 25922, 16 hour minimal inhibitory concentration at 37° C.): 20 µM (≈ 12.3 µg/mL); MIC (S. aureus RN4220; [4]): 2 µM (≈ 1.23 µg/mL); MIC (K. pneumoniae 700721; [5]): 81 µM (≈ 49.8 µg/mL); MIC (A. baumannii 19606; Acinetobacter baumannii, 19606, 16 hour minimal inhibitory concentration at 37° C.): 41 µM (≈ 25.2 µg/mL); MIC (E. coli MC4100; Escherichia coli, MC4100, 16 hour minimal inhibitory concentration at 37° C.): 20 µM (≈ 12.3 µg/mL)
CO[C@@H]1[C@@H](OC(N)=O)[C@@H](O)[C@H](Oc2ccc3c(O)c(NC(C)=O)c(=O)oc3c2C)OC1(C)C [Compound 102]	>100	>100	>200	>100	>100	>50	>200	–
COc1cccc(-c2cccc(C(=O)Nc3c(O)c4ccc(O[C@@H]5OC(C)(C)[C@H](OC)[C@@H](OC(N)=O)[C@H]5O)c(C)c4oc3=O)c2)c1 [Compound 103]	>100	36 (≈ 22.8 µg/mL)	>200	36 (≈ 22.8 µg/mL)	>100	9 (≈ 5.71 µg/mL)	>200	–
CCNC(=O)O[C@H]1[C@H](Oc2ccc3c(O)c(NC(=O)c4ccc(O)c(CC=C(C)C)c4)c(=O)oc3c2C)OC(C)(C)[C@H](OC)[C@H]1O [Compound 104]	>100	2 (≈ 1.28 µg/mL)	156 (≈ 99.9 µg/mL)	2 (≈ 1.28 µg/mL)	>100	10 (≈ 6.41 µg/mL)	>200	–
CO[C@@H]1[C@@H](O)[C@@H](OC(=O)NC(C)C)[C@H](Oc2ccc3c(O)c(NC(=O)c4ccc(O)c(CC=C(C)C)c4)c(=O)oc3c2C)OC1(C)C [Compound 105]	>100	>100	>200	>100	>100	>50	>200	–
CO[C@@H]1[C@@H](O)[C@@H](OC(=O)NC(C)(C)C)[C@H](Oc2ccc3c(O)c(NC(=O)c4ccc(O)c(CC=C(C)C)c4)c(=O)oc3c2C)OC1(C)C [Compound 106]	>100	>100	>200	>100	>100	>50	>200	–
CO[C@@H]1[C@@H](O)[C@@H](OC(=O)NC2CCCC2)[C@H](Oc2ccc3c(O)c(NC(=O)c4ccc(O)c(CC=C(C)C)c4)c(=O)oc3c2C)OC1(C)C [Compound 107]	>100	73 (≈ 49.7 µg/mL)	>200	73 (≈ 49.7 µg/mL)	>100	9 (≈ 6.13 µg/mL)	>200	–
CO[C@@H]1[C@@H](OC(=O)NC2CCCC2)[C@@H](O)[C@H](Oc2ccc3c(O)c(NC(=O)c4ccc(O)c(CC=C(C)C)c4)c(=O)oc3c2C)OC1(C)C [Compound 108]	>100	>100	>200	>100	>100	>50	>200	–
CCCNC(=O)O[C@H]1[C@H](Oc2ccc3c(O)c(NC(=O)c4ccc(O)c(CC=C(C)C)c4)c(=O)oc3c2C)OC(C)(C)[C@H](OC)[C@H]1O [Compound 109]	>100	1.53 (≈ 1 µg/mL)	>200	1.53 (≈ 1 µg/mL)	>100	10 (≈ 6.55 µg/mL)	>200	–
CO[C@@H]1[C@@H](O)[C@@H](OC(=O)NC2CCCCC2)[C@H](Oc2ccc3c(O)c(NC(=O)c4ccc(O)c(CC=C(C)C)c4)c(=O)oc3c2C)OC1(C)C [Compound 110]	>100	>100	>200	>100	>100	>50	>200	–
CO[C@@H]1[C@@H](OC(=O)c2ccc(C)[nH]2)[C@@H](O)[C@H](Oc2ccc3c(O)c(NC(=O)c4ccc(O)c(CC=C(C)C)c4)c(=O)oc3c2C)OC1(C)C [Compound 112]	–	–	–	–	–	–	–	MIC (E. cloacae 13047; Enterobacter cloacae, 13047, 16 h): > 100 µM; MIC (S. aureus MW2; [3]): < 0.01 µM; MIC (E. coli 25922; Escherichia coli, 25922, 16 h): 18.5 µM (≈ 12.5 µg/mL); MIC (S. aureus RN4220; Staphylococcus aureus, RN4220, 16 h): < 0.01 µM; MIC (K. pneumoniae 700721; Klebsiella pneumoniae, 700721, 16 h): 37 µM (≈ 25 µg/mL); MIC (A. baumannii 19606; Acinetobacter baumannii, 19606, 16 h): < 0.11 µM; MIC (E. coli MC4100; Escherichia coli, MC4100, 16 h): 74 µM (≈ 50.1 µg/mL)
CO[C@@H]1[C@@H](O)[C@@H](OC(=O)c2ccc[nH]2)[C@H](Oc2ccc3c(O)c(NC(=O)c4ccc(O)c(CC=C(C)C)c4)c(=O)oc3c2C)OC1(C)C [Compound 113]	>100	0.24 (≈ 0.159 µg/mL)	>200	0.5 (≈ 0.331 µg/mL)	>100	2 (≈ 1.33 µg/mL)	>200	–
CO[C@@H]1[C@@H](OC(N)=O)[C@@H](O)[C@H](Oc2ccc3c(O)c(NC(=O)c4ccc(N=[N+]=[N-])cc4)c(=O)oc3c2C)OC1(C)C [Compound 224]	–	–	–	–	–	–	–	MIC (E. cloacae 13047; [2]): > 100 µM; MIC (S. aureus MW2; [6]): > 100 µM; MIC (E. coli 25922; [7]): > 200 µM; MIC (S. aureus RN4220; [4]): 88 µM (≈ 50.1 µg/mL); MIC (K. pneumoniae 700721; [5]): > 100 µM; MIC (A. baumannii 19606; [8]): > 50 µM
CO[C@@H]1[C@@H](OC(N)=O)[C@@H](O)[C@H](Oc2ccc3c(O)c(NC(=O)c4ccc(I)cc4)c(=O)oc3c2C)OC1(C)C [Compound 225]	–	–	–	–	–	–	–	MIC (E. cloacae 13047; [2]): > 100 µM; MIC (S. aureus MW2; [6]): 38 µM (≈ 24.9 µg/mL); MIC (E. coli 25922; [7]): > 200 µM; MIC (S. aureus RN4220; [4]): 38 µM (≈ 24.9 µg/mL); MIC (K. pneumoniae 700721; [5]): > 100 µM; MIC (A. baumannii 19606; [8]): > 50 µM

Reference: US11713335B2, “Aminocoumarin compounds and methods of their use” (President and Fellows of Harvard College, priority 2018, dated 2023)
